Structures can show the parent of a compound that is named as a salt.
Experiments:
P-STAT3 = P-STAT3 levels (Western blotting), MDA-MB-231; type: cell-based, human
Experimental: (§1) Western Blotting—Treated cell samples were lysed in 30 mM HEPES, 10 mM NaCl, 5 mM MgCl2, 25 mM NaF, 1 mM EGTA, 1% Triton-X-100, 10% Glycerol, 2 mM Sodium orthovanidate, 10 μg/mL aprotinin, 10 μg/mL soybean trypsin inhibitor, 25 μg/mL leupeptin, 2 mM phenylmethylsulfonylfluoride (PMSF), 6.4 mg/mL p-nitrophenylphosphate for 30 minutes at 4° C., and proteins run on SDS-PAGE gels then transferred to nitrocellulose membranes. Membranes were blocked in either 5% milk in PBS, pH 7.4, containing 0.1% Tween-20 (PBS-T) or 1% BSA in TBS, pH 7.5, containing 0.1% Tween-20 (TBS-T). Phospho-STAT3 and phospho-AKT antibodies were diluted in 1% BSA in TBS-T while phospho-c-Raf, phospho-Mek, and phospho-p44/p42 MAPK antibodies (Cell Signaling) were diluted in 5% milk in PBS-T for either 1 hour at room temperature or overnight at 4° C. HRP-conjugated secondary antibodies (Jackson ImmunoResearch, West Grove, Pa.) were diluted in 5% milk in PBS-T or TBS-T at a 1:1000 dilution for one hour at room temperature. Western blots results were visualized using enhanced chemiluminescence. Stripping of the membranes for reblotting was done using stripping buffer (62.5 mM Tris pH 7.6, 2% SDS, 0.7% 2-mercaptoethanol) at 50° C. for 30 minutes.

P-Erk 1/2 = P-Erk 1/2 levels, MCF-7; type: cell-based, human; conditions: MCF-7 (breast)
Experimental: as §1

MDA-MB-231 cells = assay: Immunohistochemistry of MDA-MB-231 xenograft tumors (P-Erk 1/2, Tunel, Ki-67); type: in vivo, nude mice; conditions: 75 mpk/day, tumors removed on day 12
From the text: Anti-tumor activity in nude mouse xenograft model—Female athymic nude (nu/nu) mice, 5-6 weeks old, were purchased from Charles River (Wilmington, Mass.) and allowed to acclimate in the animal facility for one week. After harvesting, A-549, SNB-19, ACHN, and HCT-116 cells were, resuspended in sterile PBS, and injected s.c. into the right and left flanks (10×10^6 cells per flank) of the mice as previously described (Sun et al., 2005). For MDA-MB-231, cells were harvested and resuspended in PBS (10×10^6 cells per 50 μl) and an equal volume of Matrigel (BD Biosciences, San Jose, Calif.). 100 μl of MDA-MB-231 cells in PBS/Matrigel were injected s.c. into the mammary fat pads between the 2nd and 3rd nipples on each side of the mice. Once the tumors reached approximately 200-300 mm^3 the mice were randomized and treated i.p. with 0.1 ml vehicle (PBS) or ARA-211. Each treatment group consisted of five mice (2 tumors per mouse, a total of 10 tumors). The tumor volumes were determined by measuring the length (l) and width (w) and calculating the volume (V=w^2l/2). Statistical significance between the control and treated animals was determined using a student's t test. Immunohistochemisty (IHC) and slide quantitation—Upon completion of the xenograft study, mice were euthanized and the tumors were removed and fixed in 10% buffered formalin for at least 24 hours. […] The IHC slides were analyzed at the Analytical Microscopy Core facility of the H. Lee Moffitt Cancer Center & Research Institute. The Ariol SL-50 automated image analysis system (Applied Imaging, Santa Clara, Calif.) was used for quantitation of each slide as previously described (Jiang et al., 2004). Briefly, high-resolution digital pictures were taken of the entire stained area of each slice of tumor tissue for automatic staining quantitation. […] Each slide analyzed consisted of 54,000 to 160,000 cells analyzed depending on the size of the tumor when resected. Significance of the quantitation was analyzed by a two-tailed student's t-test.

SNB-19 cells [1] = assay: Nude mouse xenograft model, SNB-19 (s.c.); type: in vivo, nude mice; conditions: SNB-19 xenograft; i.p. 75 mpk/day
From the text: Anti-tumor activity in nude mouse xenograft model—Female athymic nude (nu/nu) mice, 5-6 weeks old, were purchased from Charles River (Wilmington, Mass.) and allowed to acclimate in the animal facility for one week. After harvesting, A-549, SNB-19, ACHN, and HCT-116 cells were, resuspended in sterile PBS, and injected s.c. into the right and left flanks (10×10^6 cells per flank) of the mice as previously described (Sun et al., 2005). For MDA-MB-231, cells were harvested and resuspended in PBS (10×10^6 cells per 50 μl) and an equal volume of Matrigel (BD Biosciences, San Jose, Calif.). 100 μl of MDA-MB-231 cells in PBS/Matrigel were injected s.c. into the mammary fat pads between the 2nd and 3rd nipples on each side of the mice. Once the tumors reached approximately 200-300 mm^3 the mice were randomized and treated i.p. with 0.1 ml vehicle (PBS) or ARA-211. Each treatment group consisted of five mice (2 tumors per mouse, a total of 10 tumors). The tumor volumes were determined by measuring the length (l) and width (w) and calculating the volume (V=w^2l/2). Statistical significance between the control and treated animals was determined using a student's t test.

SNB-19 cells [2] = assay: Anchorage-dependent growth (MTT assay), SNB-19; type: cell-based, human; conditions: n = 3
Experimental: MTT Assay—2000 cells per well were plated into 96 well tissue culture plates, and the cells were allowed to attach overnight at 37° C. with 10% CO2. Cells were then treated with increasing concentrations of ARA-211, or vehicle (DMSO) and incubated for four days. At that time treatment medium was removed and replaced with 100 μl of lmg/ml MTT (Sigma-Aldrich, St. Louis, Mo.) in media and incubated at 37° C., 10% CO2 for 3 hours. After 3 hours the MTT media was removed and replaced with 100 μl/well of DMSO, rocked at room temperature for 5 minutes, then absorbance read at 540 nm on a micro-plate reader.

P-Akt = P-Akt levels (Western blotting), MDA-MB-231; type: cell-based, human
Experimental: as §1

P-c-Raf-1 = P-c-Raf-1 levels (Western blotting), MDA-MB-231; type: cell-based, human
Experimental: as §1

CC(C)(C)NCC(O)c1ccc(O)c(CO)n1 (stereo not drawn) [ARA-211, 2-hydroxymethyl-3-hydroxy-6-(1-hydroxy-2-tert-butylaminoethyl) pyridine, dihydrochloride]
P-STAT3 levels (P-STAT3): not
inhibition of P-Erk 1/2 levels (P-Erk 1/2): did not
P-Erk 1/2 levels in tumors (IHC) (MDA-MB-231 cells): suppresses P-Erk 1/2 levels
apoptosis in tumors (Tunel) (MDA-MB-231 cells): induces apoptosis
tumor cell proliferation in tumors (Ki-67) (MDA-MB-231 cells): inhibits tumor cell growth
growth of tumors (SNB-19 cells [1]): is not affected
Anchorage Dependent Growth (% Inhibition) (SNB-19 cells [2]): 0 (n = 3) %
P-Akt levels (P-Akt): not
P-c-Raf-1 levels (P-c-Raf-1): not
